Source: ChEMBL document CHEMBL5385933, “Preparation and Preliminary Structure-Activity Relationship Studies of Schwarzinicine A Analogs as Vasorelaxant Agents” (J Nat Prod, 2024)
pEC50: −log10 of the molar value.

Experiments:
[1] = tested on: Aorta; assay: Vasorelaxant activity in Sprague-Dawley rat aortic rings assessed as reduction in phenylephrine-induced contractions by measuring maximum efficacy by organ bath assay relative to control; type: functional
[2] = tested on: Aorta; assay: Vasorelaxant activity in Sprague-Dawley rat aortic rings assessed as reduction in phenylephrine-induced contractions by organ bath assay; type: functional, tissue-based

Row | Structure (SMILES) | Emax [1] | pEC50 [2]
1 | c1ccc(CCNC2Cc3ccccc3C2)cc1 | 113% | 6.70
2 | CCCC(Cc1ccccc1)NCCc1ccc(OC)cc1 (centres undefined) | 114% | 5.89
3 | CCCC(Cc1ccc(C)cc1)NCCc1ccccc1 (centres undefined) | 120% | 5.58
4 | CCCC(CC1CC1)NCCc1ccccc1 (centres undefined) | 116% | 5.82
5 | c1ccc2c(c1)CCC(NC1Cc3ccccc3C1)C2 (centres undefined) | 122% | 5.88
6 | CCC(CCc1ccco1)NCCN1CCCCC1 (centres undefined) | 97.8% | 6.38
7 | CC(=O)N(CCc1ccccc1)C(CCc1ccccc1)Cc1ccccc1 (centres undefined) | 82.9% | 4.69
8 | CCCC(Cc1ccccc1)NCCN1CCOCC1 (centres undefined) | 89.8% | 5.56
9 | CCCC(CC1CCCCC1)NCCC1CCCCC1 (centres undefined) | 83.6% | 6.49
10 | CCCC(Cc1ccc(C)cc1)NCCc1ccc(F)cc1 (centres undefined) | 118% | 5.91
11 | CCCC(Cc1csc2ccccc12)NCCc1ccccc1 (centres undefined) | 112% | 6.43
12 | COc1ccc(CCNC(C)Cc2ccc(OC)c(OC)c2)cc1OC (centres undefined) | 104% | 5.54
13 | CCC(CCc1ccc(C#N)cc1)NCCc1ccccc1 (centres undefined) | 125% | 5.71
14 | CCCC(Cc1ccccc1)NCCc1ccc(O)cc1 (centres undefined) | 111% | 7.31
15 | COc1ccc(CCNC(Cc2ccccc2)Cc2ccccc2)cc1OC | 115% | 5.73
16 | CCC(CCc1ccco1)NCCc1ccccc1 (centres undefined) | 122% | 6.74
17 | CCCC(Cc1ccccc1)NCCc1ccccn1 (centres undefined) | 114% | 5.95
18 | CCCC(Cc1ccccc1)NCCc1ccc([N+](=O)[O-])cc1 (centres undefined) | 119% | 5.76
19 | CCCC(Cc1ccccc1)NC1CC1 (centres undefined) | 114% | 5.65

Row | Structure (SMILES) | Emax [1] | pEC50 [2]
20 | CCCC(CC1CCCCC1)NCCc1ccccc1 (centres undefined) | 114% | 5.74
21 | CCC(CCCCc1ccccc1)NCCc1ccccc1 (centres undefined) | 125% | 5.47
22 | CCCC(CCCCc1ccccc1)NCCc1ccccc1 (centres undefined) | 121% | 5.69
23 | CCCC(Cc1ccc(Cl)cc1)NCCc1ccccc1 (centres undefined) | 114% | 5.71
24 | CCCC(Cc1ccccc1)NCCc1ccccc1 (centres undefined) | 113% | 5.51
25 | CCCC(Cc1ccccc1)NCCN1CCCCC1 (centres undefined) | 110% | 6.89
26 | CCCC(Cc1ccccc1)NC1Cc2ccccc2C1 (centres undefined) | 114% | 6.46
27 | C[N+](C)(CCc1ccccc1)C(CCc1ccccc1)Cc1ccccc1 (centres undefined) | 136% | 5.71
28 | CCCC(Cc1ccccc1)NCCc1cccs1 (centres undefined) | 134% | 5.46
29 | CCC(Cc1ccccc1)NCCc1ccccc1 (centres undefined) | 120% | 5.95
30 | CCCC(CC1CCCCC1)NCCC1=CCCCC1 (centres undefined) | 84.7% | 6.00
31 | CN(CCc1ccccc1)C(CCc1ccccc1)Cc1ccccc1 (centres undefined) | 93.5% | 7.40
32 | CCC(CCc1cccs1)NCCc1ccccc1 (centres undefined) | 120% | 6.72
33 | CCCC(CC1CCCCC1)NCCN1CCCCC1 (centres undefined) | 88.4% | 6.66
34 | CCC(CCc1ccco1)NCCC1CCCCC1 (centres undefined) | 106% | 5.67
35 | Fc1ccc(CCNC(CCc2ccccc2)Cc2ccc(Cl)cc2)cc1 (centres undefined) | 92.2% | 6.19
36 | CCCC(Cc1ccccc1)NCCc1c[nH]cn1 (centres undefined) | 122% | 5.86
37 | CCCC(Cc1cccs1)NCCc1ccccc1 (centres undefined) | 110% | 6.39
38 | CCC(CCc1ccccc1)NCCc1ccccc1 (centres undefined) | 11.5% | 5.91

Row | Structure (SMILES) | Emax [1] | pEC50 [2]
39 | CCCC(Cc1ccccc1)NC1CCCC1 (centres undefined) | 116% | 5.51
40 | CCCC(Cc1ccc(Cl)cc1)NCCc1ccc(F)cc1 (centres undefined) | 99.1% | 5.96
41 | c1ccc(CCNC(CCc2ccccc2)Cc2ccccc2)cc1 (centres undefined) | 116% | 5.64
42 | CCN(CCc1ccccc1)C(CCc1ccccc1)Cc1ccccc1 (centres undefined) | 85% | 5.92
43 | CCCC(Cc1ccc2c(c1)OCO2)NCCc1ccccc1 (centres undefined) | 113% | 5.97
44 | CCCC(Cc1ccc2ccccc2c1)NCCc1ccccc1 (centres undefined) | 115% | 5.80
45 | CCCCCCCC(CCC)NCCc1ccccc1 (centres undefined) | 89.7% | 5.98
46 | CCCC(Cc1ccccc1)NCCC1=CCCCC1 (centres undefined) | 117% | 5.62
47 | c1ccc(CCNC2CCc3ccccc3C2)cc1 (centres undefined) | 119% | 6.30
48 | CCCC(Cc1ccccc1)NCCc1ccc(F)cc1 (centres undefined) | 120% | 5.42
49 | CCCNC(CCc1ccccc1)Cc1ccccc1 (centres undefined) | 121% | 5.42
50 | CCCC(Cc1ccccc1)NC1CC2CCC1C2 (centres undefined) | 106% | 6.32
51 | c1ccc(CCC(Cc2ccccc2)N(CCc2ccccc2)CCc2ccccc2)cc1 (centres undefined) | 68.9% | 5.86
52 | CCCC(Cc1ccccc1)NCCC#N (centres undefined) | 89.5% | 5.84
53 | COc1ccc(CCC(Cc2ccc(OC)c(OC)c2)NCCc2ccc(OC)c(OC)c2)cc1 (centres undefined) | 122% | 5.52
54 | c1ccc(CCC(Cc2ccccc2)N(CCc2ccccc2)CC2CC2)cc1 (centres undefined) | 75.4% | 6.85
55 | CCCC(Cc1ccccc1)NCCN1CCNCC1 (centres undefined) | 107% | 5.98
56 | CCCC(Cc1ccccc1)NCCc1c[nH]c2ccccc12 (centres undefined) | 114% | 6.36
57 | CCCC(Cc1ccccc1)NCCCCc1ccccc1 (centres undefined) | 127% | 5.56
